The values below come from ChEMBL document CHEMBL3856244, “Hydrogen peroxide derived from marine peroxy sesquiterpenoids induces apoptosis in HCT116 human colon cancer cells” (Bioorg Med Chem Lett, 2016).

A short description of assay [1]: Cytotoxicity against human HCT116 cells assessed as decrease in cell viability after 17 hrs by MTT assay. In kind it is functional, cell-based. The following applies: HCT-116, 17 h. In general terms: Formazan colour is commonly taken as a measure of viable cells.
Assay [2] relates to HCT-116. Briefly: Cytotoxicity against human HCT116 cells assessed as decrease in cell viability at 6.25 to 200 uM after 17 hrs by MTT assay. Type of assay: functional, cell-based.
Assay [3] has as its system HCT-116. Briefly: Induction of apoptosis in human HCT116 cells assessed as nuclear condensation at 100 uM after 48 hrs by Hoechst 33342 staining based assay. Type of assay: functional, cell-based.
Assay [4] deals with HCT-116. Briefly: Induction of apoptosis in human HCT116 cells assessed as increase in caspase 3/7 activation at 50 to 200 uM after 17 hrs by luciferase coupled luminescence assay. Type of assay: functional, cell-based.
In assay [5] the test system is HCT-116. Briefly: Induction of ROS generation in human HCT116 cells at 12.5 uM after 5 mins by DCFH-DA probe based fluorescence assay relative to control. In kind it is functional, cell-based.
Assay [6] deals with HCT-116. Briefly: Induction of H2O2 accumulation in human HCT116 cells at 12.5 uM relative to control. Type of assay: functional.

The source made the active and inactive calls. The calls are words filed in the database; no cut-off is given here.

The term IC50 denotes the concentration that gives 50% inhibition. On to `CC1=C[C@@H]2C(=CC1)[C@](C)(OO)CC[C@@H]2C(C)C`, for which the IC50 in assay [1] was 61.2 µM. Further, the result in assay [2], in assay [3], in assay [4] and in assay [5] was Active. In assay [6], the “fold change (FC)” value is listed as 2 - 3.

For the molecule `Cc1ccc2c(c1)[C@H](C(C)C)CC[C@@]2(C)OO`, the half-inhibitory concentration (IC50) in assay [1] stood at 43.7 µM. Further, the result in assay [2], in assay [3], in assay [4] and in assay [5] was Active. The “fold change (FC)” value in assay [6] was 2 - 3.

For the molecule `CC(C)[C@H]1CC[C@H](C)[C@@]23CC[C@@](C)(C=C12)OO3`, the concentration for half-maximal inhibition (IC50) in assay [1] is 38.6 µM. The result in assay [2], in assay [3], in assay [4] and in assay [5] was Active. The “fold change (FC)” value in assay [6] is on record as 2 - 3.
